Laboratory results: patent US20250382308A1, “COMPOUNDS ACTIVE TOWARDS BROMODOMAINS” (NUEVOLUTION A/S, priority 2022, published 2025)

Columns and labels:
[1] = target: first bromodomain of BRD4 (Homo sapiens (Human), UniProt O60885); experiment: Bromoscan binding assay BRD4 (1); conditions: for Kd: Bromoscan, geometric mean where multiple measurements have been made; for Selectivity BRD4(2)/BRD4(1): ratio BRD4(2) Kd / BRD4(1) Kd
Protocol: (§1) Compounds were assayed for binding affinity using bromoscan assays and a phosphodiesterase three assay.
(§2) Bromoscan assays were run by DiscoveRx Corporation. The relevant assay names are BRD4 (1) for the first bromodomain of BRD4 and BRD4 (2) for the second bromodomain of BRD4. Further Bromoscan assays covering other bromodomains may be employed to establish the selectivity profile of a compound of interest. To run the Bromoscan assay, a T7 phage strain displaying the relevant bromodomain was grown in parallel in 24-well blocks in an E. coli host derived from the BL21 strain. E. coli were grown to log-phase and infected with T7 phage from a frozen stock (multiplicity of infection=0.4) and incubated with shaking at 32° C. until lysis (90-150 minutes). The lysates were centrifuged (5,000×g) and filtered (0.2 μm) to remove cell debris. […] The liganded beads were blocked with excess biotin and washed with blocking buffer (SeaBlock (Pierce), 1% BSA (bovine serum albumin), 0.05% Tween 20, 1 mM DTT (dithiothreitol)) to remove unbound ligand and to reduce non-specific phage binding. […] Test compounds were prepared as 1000× stocks in 100% DMSO and subsequently diluted 1:10 in monoethylene glycol (MEG) to create stocks at 100× the screening concentration (resulting stock solution is 10% DMSO/90% MEG). The compounds were then diluted directly into the assays such that the final concentration of DMSO and MEG were 0.1% and 0.9%, respectively. All reactions were performed in polystyrene 96-well plates in a final volume of 0.135 ml. […] The bromodomain concentration in the eluates was measured by qPCR (quantitative real-time polymerase chain reaction). Binding constants (Kds) were calculated with a standard dose-response curve using the Hill equation: Response=Blackground+((Signal-Background)/(1+Kd^Hill Slope/Dose^Hill Slope)). The Hill Slope was set to −1. Curves were fitted using a non-linear least square fit with the Levenberg-Marquardt algorithm.

[2] = target: second bromodomain of BRD4 (Homo sapiens (Human), UniProt O60885); experiment: Bromoscan binding assay BRD4 (2); conditions: geometric mean where multiple measurements have been made
Protocol: as §1, §2

Row | Compound | Kd [1] | Selectivity BRD4(2)/BRD4(1) [1] | Kd [2]
1 | COc1cc(NC(=O)c2cc3c(nc2N2CC4CC2(C)C4)COC3)cc2c(C)cc(=O)[nH]c12 [Example 4, N-(8-methoxy-4-methyl-2-oxo-1H-quinolin-6-yl)-2-(1-methyl-2-azabicyclo[2.1.1]hexan-2-yl)-5,7-dihydrofuro[3,4-b]pyridine-3-carboxamide] | 29 nM | >172 | > 5000 nM
2 | Cc1cc(=O)[nH]c2c3c(c(NC(=O)c4cc5c(nc4N4CCOCC4)COC5)cc12)OCCO3 [Example 10, N-(7-methyl-9-oxo-3,10-dihydro-2H-[1,4]dioxino[2,3-h]quinolin-5-yl)-2-morpholino-5,7-dihydrofuro[3,4-b]pyridine-3-carboxamide] | 43 nM | >232 | > 10000 nM
3 | COc1cc(NC(=O)c2cc3c(nc2N2CC4C(C2)C4(F)F)COC3)cc2c(C)cc(=O)[nH]c12 (centres unmarked) [Example 5, 2-(6,6-difluoro-3-azabicyclo[3.1.0]hexan-3-yl)-N-(8-methoxy-4-methyl-2-oxo-1H-quinolin-6-yl)-5,7-dihydrofuro[3,4-b]pyridine-3-carboxamide] | 17 nM | 12 | 200 nM
4 | COc1cc(NC(=O)c2cc3c(nc2N2CCOCC2)CN(C)C3)cc2c(C)cc(=O)[nH]c12 [Example 32, N-(8-methoxy-4-methyl-2-oxo-1H-quinolin-6-yl)-6-methyl-2-morpholino-5,7-dihydropyrrolo[3,4-b]pyridine-3-carboxamide] | 17 nM | 18 | 300 nM
5 | COc1cc(NC(=O)c2cc3c(nc2N2CC4CCOC4C2)COC3)cc2c(C)cc(=O)[nH]c12 (centres unmarked) [Example 19, 2-(2,3,3a,4,6,6a-hexahydrofuro[2,3-c]pyrrol-5-yl)-N-(8-methoxy-4-methyl-2-oxo-1H-quinolin-6-yl)-5,7-dihydrofuro[3,4-b]pyridine-3-carboxamide] | 180 nM | 31 | 5600 nM
6 | Cc1cc(=O)[nH]c2c3c(c(NC(=O)c4cc5c(nc4N4CCOCC4)COC5)cc12)CCO3 [Example 8, N-(6-methyl-8-oxo-3,9-dihydro-2H-furo[3,2-h]quinolin-4-yl)-2-morpholino-5,7-dihydrofuro[3,4-b]pyridine-3-carboxamide] | 56 nM | 45 | > 2500 nM
7 | COc1cc(NC(=O)c2cc3c(nc2N2CCOCC2)COC3C)cc2c(C)cc(=O)[nH]c12 (centres unmarked) [Example 31, N-(8-methoxy-4-methyl-2-oxo-1H-quinolin-6-yl)-5-methyl-2-morpholino-5,7-dihydrofuro[3,4-b]pyridine-3-carboxamide] | 22 nM | 45 | 1000 nM
8 | COc1cc(NC(=O)c2cc3c(nc2N2CCOCC2)CN(C(C)C)C3)cc2c(C)cc(=O)[nH]c12 [Example 35, 6-isopropyl-N-(8-methoxy-4-methyl-2-oxo-1H-quinolin-6-yl)-2-morpholino-5,7-dihydropyrrolo[3,4-b]pyridine-3-carboxamide] | 20 nM | 30 | 600 nM
9 | COc1cc(NC(=O)c2cc3c(nc2C2=CCCC2)COC3)cc2c(C)cc(=O)[nH]c12 [Example 3, 2-(cyclopenten-1-yl)-N-(8-methoxy-4-methyl-2-oxo-1H-quinolin-6-yl)-5,7-dihydrofuro[3,4-b]pyridine-3-carboxamide] | 13 nM | 62 | 800 nM
10 | COc1cc(NC(=O)c2cc3c(nc2N2CCC(F)(F)C2)COC3)cc2c(C)cc(=O)[nH]c12 [Example 16, 2-(3,3-difluoropyrrolidin-1-yl)-N-(8-methoxy-4-methyl-2-oxo-1H-quinolin-6-yl)-5,7-dihydrofuro[3,4-b]pyridine-3-carboxamide] |  | 43 | 
11 | COc1cc(NC(=O)c2cc3c(nc2N2C[C@H]4CCO[C@H]4C2)COC3)cc2c(C)cc(=O)[nH]c12 (racemic) [Example 22, N-(8-methoxy-4-methyl-2-oxo-1H-quinolin-6-yl)-2-[rac-(3aR,6aR)-2,3,3a,4,6,6a-hexahydrofuro[2,3-c]pyrrol-5-yl]-5,7-dihydrofuro[3,4-b]pyridine-3-carboxamide] | 170 nM | 22 | 3800 nM
12 | COc1cc(NC(=O)c2cc3c(nc2N2C4CCCC2CC4)COC3)cc2c(C)cc(=O)[nH]c12 [Example 21, 2-(8-azabicyclo[3.2.1]octan-8-yl)-N-(8-methoxy-4-methyl-2-oxo-1H-quinolin-6-yl)-5,7-dihydrofuro[3,4-b]pyridine-3-carboxamide] | 6 nM | 233 | 1400 nM
13 | COc1cc(NC(=O)c2cc3c(nc2N2CCC[C@H]2C)COC3)cc2c(C)cc(=O)[nH]c12 [Example 18, N-(8-methoxy-4-methyl-2-oxo-1H-quinolin-6-yl)-2-[(2R)-2-methylpyrrolidin-1-yl]-5,7-dihydrofuro[3,4-b]pyridine-3-carboxamide] | 12 nM | 17 | 200 nM
14 | CCN(c1nc2c(cc1C(=O)Nc1cc(OC)c3[nH]c(=O)cc(C)c3c1)COC2)C(C)C [Example 28, 2-[ethyl(isopropyl)amino]-N-(8-methoxy-4-methyl-2-oxo-1H-quinolin-6-yl)-5,7-dihydrofuro[3,4-b]pyridine-3-carboxamide] | 33 nM | 30 | 1000 nM
15 | COc1cc(NC(=O)c2cc3c(nc2N2CC[C@@H](F)C2)COC3)cc2c(C)cc(=O)[nH]c12 [Example 40, 2-[(3R)-3-fluoropyrrolidin-1-yl]-N-(8-methoxy-4-methyl-2-oxo-1H-quinolin-6-yl)-5,7-dihydrofuro[3,4-b]pyridine-3-carboxamide] | 11 nM | 14 | 150 nM
16 | CCN1Cc2cc(C(=O)Nc3cc(OC)c4[nH]c(=O)cc(C)c4c3)c(N3CCOCC3)nc2C1 [Example 34, 6-ethyl-N-(8-methoxy-4-methyl-2-oxo-1H-quinolin-6-yl)-2-morpholino-5,7-dihydropyrrolo[3,4-b]pyridine-3-carboxamide] | 25 nM | 32 | 800 nM

More lines, now with the values ahead:

Row | Kd [1] | Selectivity BRD4(2)/BRD4(1) [1] | Kd [2] | Compound
17 | 26 nM | 15 | 400 nM | COc1cc2[nH]c(=O)cc(C)c2cc1NC(=O)c1cc2c(nc1N1CCOCC1)COC2 [Example 14, N-(7-methoxy-4-methyl-2-oxo-1H-quinolin-6-yl)-2-morpholino-5,7-dihydrofuro[3,4-b]pyridine-3-carboxamide]
18 | 150 nM | 30 | 4500 nM | COc1cc(NC(=O)c2cc3c(nc2N2CCC[C@@H]2C)COC3)cc2c(C)cc(=O)[nH]c12 [Example 25, N-(8-methoxy-4-methyl-2-oxo-1H-quinolin-6-yl)-2-[(2S)-2-methylpyrrolidin-1-yl]-5,7-dihydrofuro[3,4-b]pyridine-3-carboxamide]
19 | 440 nM | 17 | 7400 nM | COc1c(F)c(NC(=O)c2cc3c(nc2N2CCOCC2)COC3)cc2c(C)cc(=O)[nH]c12 [Example 9, N-(7-fluoro-8-methoxy-4-methyl-2-oxo-1H-quinolin-6-yl)-2-morpholino-5,7-dihydrofuro[3,4-b]pyridine-3-carboxamide]
20 | 70 nM | 49 | 3400 nM | COc1cc(NC(=O)c2cc3c(nc2N2CC4COCC4C2)COC3)cc2c(C)cc(=O)[nH]c12 (centres unmarked) [Example 20, 2-(1,3,3a,4,6,6a-hexahydrofuro[3,4-c]pyrrol-5-yl)-N-(8-methoxy-4-methyl-2-oxo-1H-quinolin-6-yl)-5,7-dihydrofuro[3,4-b]pyridine-3-carboxamide]
21 | 26 nM | 16 | 400 nM | COc1cc(NC(=O)c2cc3c(nc2N2C[C@@H](F)[C@@H](F)C2)COC3)cc2c(C)cc(=O)[nH]c12 [Example 42, N-(8-methoxy-4-methyl-2-oxo-1H-quinolin-6-yl)-2-[rac-(3R,4S)-3,4-difluoropyrrolidin-1-yl]-5,7-dihydrofuro[3,4-b]pyridine-3-carboxamide]
22 | 13 nM | 23 | 300 nM | COc1cc(NC(=O)c2cc3c(nc2N2CCOCC2)CN(C2COC2)C3)cc2c(C)cc(=O)[nH]c12 [Example 33, N-(8-methoxy-4-methyl-2-oxo-1H-quinolin-6-yl)-2-morpholino-6-(oxetan-3-yl)-5,7-dihydropyrrolo[3,4-b]pyridine-3-carboxamide]
23 |  | 24 |  | CCN(CC)c1nc2c(cc1C(=O)Nc1cc(OC)c3[nH]c(=O)cc(C)c3c1)COC2 [Example 27, 2-(diethylamino)-N-(8-methoxy-4-methyl-2-oxo-1H-quinolin-6-yl)-5,7-dihydrofuro[3,4-b]pyridine-3-carboxamide]
